Reference: the Kinase Knowledgebase extract (Sharma et al. 2016)

target: ROCK2 (human) (UniProt O75116); assay: Inhibition of ROCK2 Kinase Activity
Sequence (O75116 whole entry, looked up): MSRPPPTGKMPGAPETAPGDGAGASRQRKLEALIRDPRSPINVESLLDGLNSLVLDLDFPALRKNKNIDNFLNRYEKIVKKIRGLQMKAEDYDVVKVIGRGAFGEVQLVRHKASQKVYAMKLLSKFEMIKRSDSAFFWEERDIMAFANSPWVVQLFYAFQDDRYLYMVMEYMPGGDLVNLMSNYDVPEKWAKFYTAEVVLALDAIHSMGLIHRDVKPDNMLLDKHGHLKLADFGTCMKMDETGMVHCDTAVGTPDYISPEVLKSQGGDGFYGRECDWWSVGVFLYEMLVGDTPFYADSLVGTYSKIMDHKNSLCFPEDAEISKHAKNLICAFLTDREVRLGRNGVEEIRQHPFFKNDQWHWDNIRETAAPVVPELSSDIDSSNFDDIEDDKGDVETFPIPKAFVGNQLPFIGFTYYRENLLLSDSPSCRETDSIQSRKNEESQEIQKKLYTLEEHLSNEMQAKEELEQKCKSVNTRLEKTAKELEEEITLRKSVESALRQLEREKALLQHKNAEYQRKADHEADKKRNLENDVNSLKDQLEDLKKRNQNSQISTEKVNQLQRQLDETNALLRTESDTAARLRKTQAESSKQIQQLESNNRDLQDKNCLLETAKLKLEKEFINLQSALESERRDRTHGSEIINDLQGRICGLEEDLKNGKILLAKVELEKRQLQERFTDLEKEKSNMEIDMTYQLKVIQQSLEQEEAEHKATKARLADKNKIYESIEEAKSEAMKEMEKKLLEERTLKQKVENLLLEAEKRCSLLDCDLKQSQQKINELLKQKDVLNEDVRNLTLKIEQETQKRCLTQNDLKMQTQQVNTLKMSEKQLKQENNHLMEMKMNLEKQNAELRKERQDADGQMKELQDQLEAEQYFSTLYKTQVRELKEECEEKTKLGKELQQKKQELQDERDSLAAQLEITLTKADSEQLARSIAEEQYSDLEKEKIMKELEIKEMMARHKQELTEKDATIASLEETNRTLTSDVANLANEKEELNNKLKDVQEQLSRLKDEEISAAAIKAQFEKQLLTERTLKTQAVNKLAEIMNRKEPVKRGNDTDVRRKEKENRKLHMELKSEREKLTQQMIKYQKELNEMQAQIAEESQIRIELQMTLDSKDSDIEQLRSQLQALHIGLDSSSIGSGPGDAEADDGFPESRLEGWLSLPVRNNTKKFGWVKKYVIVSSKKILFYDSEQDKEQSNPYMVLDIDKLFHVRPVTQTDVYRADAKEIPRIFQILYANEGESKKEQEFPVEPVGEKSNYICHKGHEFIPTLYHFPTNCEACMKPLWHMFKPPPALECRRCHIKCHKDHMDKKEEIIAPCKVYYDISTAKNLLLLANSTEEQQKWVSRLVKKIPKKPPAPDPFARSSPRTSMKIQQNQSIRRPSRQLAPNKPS

Row | SMILES | IC50
1 | c1ccc(CCc2nc3ccc(-c4cn[nH]c4)cc3s2)cc1 | 0.04 µM
2 | COc1ccc(CNc2nc3ccc(-c4ccncc4)cc3s2)cc1 | 5 µM
3 | CN(C)CCNC(=O)c1cccc(CN(C(=O)c2nc3ccc(-c4cn[nH]c4)cc3s2)C2CC2)c1 | 0.035 µM
4 | COc1cccc(CN(CCCN(C)C)C(=O)c2nc3ccc(-c4cn[nH]c4)cc3s2)c1 | 0.0043 µM
5 | COc1cccc(CN(CCN(C)C)C(=O)Nc2nc3ccc(-c4cn[nH]c4)cc3s2)c1 | 0.008 µM
6 | O=C(Nc1nc2ccc(-c3cn[nH]c3)cc2s1)[C@H]1CNC[C@@H]1c1ccccc1 | 0.05 µM
7 | COc1cccc(C(=O)Nc2nc3ccc(-c4ccncc4)cc3s2)c1 | 1.93 µM
8 | NCC(=O)N1C[C@H](C(=O)Nc2nc3ccc(-c4cn[nH]c4)cc3s2)[C@@H](c2ccccc2)C1 | 0.037 µM
9 | c1ccc(OCc2nc3ccc(-c4cn[nH]c4)cc3s2)cc1 | 0.044 µM
10 | Nc1nccc(-c2ccc3nc(C4COc5ccccc5O4)oc3c2)n1 (centres undefined) | 0.021 µM
11 | COc1cccc(CN(CCN2CCCC2)C(=O)c2nc3ccc(-c4cn[nH]c4)cc3s2)c1 | 0.043 µM
12 | CN(C)CCN(Cc1cccc(F)c1)C(=O)c1nc2ccc(-c3cn[nH]c3)cc2s1 | 0.001 µM
13 | CN(C)CCN(Cc1ccccc1)C(=O)c1nc2ccc(-c3cn[nH]c3)cc2s1 | 0.002 µM
14 | NCCC(=O)N1CC(C(=O)Nc2nc3ccc(-c4cn[nH]c4)cc3s2)CC1c1ccccc1 (centres undefined) | 0.029 µM

Further lines, results first:

Row | IC50 | SMILES
15 | 0.036 µM | Nc1cc(-c2ccc3nc(C4COc5ccccc5C4)oc3c2)ccn1 (centres undefined)
16 | 0.006 µM | COc1ccc2c(c1)CC(c1nc3ccc(-c4ccncc4)cc3o1)CO2 (centres undefined)
17 | 0.016 µM | COc1ccc2c(c1)CC(c1nc3ccc(-c4c[nH]nc4C)cc3o1)CO2 (centres undefined)
18 | 0.008 µM | COc1ccc2c(c1)CC(c1nc3ccc(-c4ccnc(N)c4)cc3o1)CO2 (centres undefined)
19 | 0.018 µM | Nc1cc(-c2ccc3nc(C4COc5ccc(F)cc5C4)oc3c2)ccn1 (centres undefined)
20 | 0.03 µM | Fc1ccc2c(c1)CC(c1nc3ccc(-c4cn[nH]c4)cc3o1)CO2 (centres undefined)
21 | 0.219 µM | COc1ccc2c(c1)CC(c1nc3cc(-c4cn[nH]c4)ccc3o1)CO2 (centres undefined)
22 | 0.023 µM | Nc1nccc(-c2ccc3nc(C4COc5ccc(F)cc5C4)sc3c2)n1 (centres undefined)
23 | 0.007 µM | COc1cccc(CN(CCO)C(=O)c2nc3ccc(-c4cn[nH]c4)cc3s2)c1
24 | 0.00087 µM | CN(C)CCCNC(=O)c1ccc2c(c1)CC(c1nc3ccc(-c4cn[nH]c4)cc3s1)CO2 (centres undefined)
25 | 0.518 µM | COc1ccc2c(c1)CC(c1nc3cc(-c4ccnc5[nH]ccc45)ccc3o1)CO2 (centres undefined)
26 | 0.009 µM | Cc1n[nH]cc1-c1ccc2nc(C3COc4ccc(F)cc4C3)oc2c1 (centres undefined)
27 | 0.017 µM | c1ccc2c(c1)OCC(c1nc3ccc(-c4cn[nH]c4)cc3s1)O2 (centres undefined)
28 | 0.0015 µM | COc1ccc2c(c1)CC(c1nc3ccc(-c4cn[nH]c4)cc3o1)CO2 (centres undefined)
29 | 0.022 µM | O=C(Nc1nc2ccc(-c3cn[nH]c3)cc2s1)C1COc2ccc(F)cc2C1 (centres undefined)
30 | 0.042 µM | COc1cccc(OCc2nc3ccc(-c4cn[nH]c4)cc3s2)c1
31 | 0.014 µM | O=C(Nc1nc2ccc(-c3cn[nH]c3)cc2s1)C1COc2ccccc2C1 (centres undefined)
32 | 0.579 µM | COc1ccc2c(c1)CC(c1nc3cc(-c4ccncc4)cnc3s1)CO2 (centres undefined)
33 | 0.021 µM | COc1cccc(CNC(=O)c2nc3ccc(-c4cn[nH]c4)cc3s2)c1
34 | 0.933 µM | COc1ccc2c(c1)CC(c1nc3cc(-c4ccnc(N)n4)ccc3o1)CO2 (centres undefined)
